What is called IC50 is the midpoint of a concentration-inhibition curve.

Here are results for one compound from patent publication US20220152077A1 (THE UNIVERSITY OF WARWICK, priority 2019, published 2022).

“Also recorded” adds a separate entry of the source.

One series concerns the target T1, human A1R (Homo sapiens, UniProt P30542).
T1 sequence (P30542 1-326): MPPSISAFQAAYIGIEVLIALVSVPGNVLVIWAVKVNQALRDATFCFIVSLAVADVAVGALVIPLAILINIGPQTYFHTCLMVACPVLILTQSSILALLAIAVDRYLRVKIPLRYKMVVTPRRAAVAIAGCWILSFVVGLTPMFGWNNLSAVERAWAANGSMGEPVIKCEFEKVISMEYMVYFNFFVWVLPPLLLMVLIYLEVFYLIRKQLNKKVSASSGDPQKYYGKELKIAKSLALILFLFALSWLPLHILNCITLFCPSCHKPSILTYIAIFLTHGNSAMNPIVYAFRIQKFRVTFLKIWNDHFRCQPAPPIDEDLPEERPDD
The experiment in a line: BRET assay for β-arrestin2 recruitment in HEK 293 cells. Format: cell-based. The note with it: data not shown. How it is done: (§1) Data Analysis. […] Statistical significance was tested as indicated in the text using paired or unpaired t-tests or one-way or two-way ANOVAs with repeated measures (RM) as appropriate. Bonferroni corrections for multiple comparisons were performed. All in vitro cell signalling assay data was analysed using Prism 7.0e (Graphpad software, San Diego, Calif.), with all concentration-response curves being fitted using a 3 parameter logistic equation to calculate response range and IC50. All cAMP data was normalised to a forskolin concentration-response curve ran in parallel to each assay. […] Radioligand displacement curves were fitted to the one-site competition binding equation yielding log Ki values. […] To determine the extent of ligand-induced recruitment of β-arrestin2-YFP to either the A1R or A3R, the BRET signal was calculated by subtracting the 530 nm/450 nm emission for vehicle-treated cells from ligand-treated cells (ligand-induced ΔBRET). ΔBRET for each concentration at 5 minutes (maximum response) was used to produce concentration-response curves.
For orientation: BRET reads energy transfer from a luciferase to a nearby fluorophore.

The test system of series [1] is urethane-anaesthetised, spontaneously breathing adult rats. In words: In vivo anaesthetised rat preparation, respiration.
Excerpt: In vivo anaesthetised rat preparation for cardiorespiratory recordings: Anaesthesia was induced in adult male Sprague Dawley rats (230-330 g) with isofluorane (2-4%; Piramal Healthcare). The femoral vein was catheterised for drug delivery. Anaesthesia was maintained with urethane (1.2-1.7 g/kg; Sigma) in sterile saline delivered via the femoral catheter. The femoral artery was catheterised and connected to a pressure transducer (Digitimer) to record arterial blood pressure. […] The rats were then allowed to stabilise before the experiments began. […] Arterial blood pressure recordings were used to derive heart rate (HR: beats·minute^−1; BPM), and to calculate mean arterial blood pressure (MAP: Diastolic pressure+⅓*[Systolic Pressure−Diastolic pressure]). Airflow measurements were used to calculate: tidal volume (VT; mL; pressure sensors were calibrated with a 3 mL syringe), and respiratory frequency (f; breaths·min-1; BrPM). Minute ventilation (VE; mL·min-1) was calculated as f×VT.
Adult male Sprague Dawley rats (400-500 g) were anaesthetised with urethane and instrumented as described above, with the exception that the arterial cannulation was not performed.
After a 20 minutes recovery period CPA (6.3 μg·kg^−1) was administered. All injections were administered IV as a 350 μl·kg^−1 bolus. Changes in f, VT, and VE were measured. If the dosing occurred close to a respiratory event such as a sigh a second IV dose was administered, with 20 minute recovery periods either side of the injection.
One-way ANOVAs, with repeated measures as appropriate, and with Bonferroni correction for multiple comparisons were used. Statistical significance for the effects of IV saline was tested using paired t-tests. Data are reported throughout as mean±SEM and n values are reported for each experiment. […] The significance level was set at P<0.05, with actual P values reported in the figure legends and summaries, by way of abbreviations and asterisks, on the graphs: ns, not significant; * P<0.05; **, P<0.02; ***, P<0.001; ****, P<0.0001.
Series [2] deals with synaptic transmission in the hippocampus. In words: Extracellular fEPSP recording in hippocampal slices (synaptic transmission). Format: cell-based, rat. As to conditions: rat hippocampal slices, CA1; read-out: IC50, inhibition of synaptic transmission (fEPSP slope). How it is done:
(§2) Preparation of hippocampal slices: Sagittal slices of hippocampus (300-400 μm) were prepared from male Sprague Dawley rats, at postnatal days 12 to 20. Rats were kept on a 12-hour light-dark cycle with slices made 90 minutes after entering the light cycle. […] The brain was removed, cut down the mid line and the two sides of the brain stuck down to a metal base plate. […] Slices were stored at 34° C. for 1 to 6 hours in aCSF (1 mM MgCl2, 2 mM CaCl2) before use.
Extracellular recording: A slice was transferred to the recording chamber, submerged in aCSF and perfused at 4 to 6 mL/min (32° C.). The slice was placed on a grid allowing perfusion above and below the tissue and all tubing was gas tight (to prevent loss of oxygen). For extracellular recording, an aCSF filled microelectrode was placed on the surface of stratum radiatum in CA1. […] For fEPSPs a 10 to 20 minute baseline was recorded at a stimulus intensity that gave 40 to 50% of the maximal response. […] For fEPSP slope, a 1 ms linear region after the fibre volley was measured. Extracellular recordings were made independently on two electrophysiology rigs.
Statistical significance was tested using the unpaired t-test and one-way and two-way ANOVAs with Bonferroni correction for multiple comparisons.
as §1

The test system of another series is Gob. In words: cAMP accumulation in PTX-pre-treated CHO-K1-hA1R cells transfected with PTX-insensitive Gob. Type of series: cell-based, human. How it is done:
(§3) Cells were then incubated for 24 hours before addition of 100 ng/ml PTX, to inhibit activity of endogenous Gαi/o, and then incubated for a further 16-18 hours. Transfected cells were then assayed as per cAMP inhibition experiments, but co-stimulated with agonist and 100 nM forskolin.
as §1

Series [3] deals with urethane-anaesthetised, spontaneously breathing adult rats. In words: In vivo anaesthetised rat preparation, heart rate and mean arterial blood pressure. As to conditions: IV; adenosine 1 mg·kg^−1, BnOCPA 10 μg·kg^−1, CPA 420 ng·kg^−1.
Another series concerns Goa. Format: cell-based, human. The note with it: PTX-treated cells. How it is done: as §3, §1
The test system of series [4] is synaptic transmission in spinal nociceptive afferents. The experiment in a line: Dorsal root afferent-evoked EPSPs in dorsal horn neurones, rat spinal cord slices. Format: cell-based. The note with it: rat lumbar spinal cord slices, 0.1 Hz.
Description: Spinal cord slice preparation: Adult male Sprague-Dawley rats, aged 8-12 weeks (260-280 g), were housed in an air-conditioned room on a 12 hour light/dark cycle with food and water available ad libitum. Rats were terminally anaesthetized using isofluorane and decapitated. […] A laminectomy was performed and the spinal cord and associated roots gently dissected and teased out of the spinal column and surrounding tissues. Dura and pia mater and ventral roots were subsequently removed with fine forceps and the spinal cord hemisected. Care was taken to ensure dorsal root inputs to the spinal cord were maintained. The hemisected spinal cord-dorsal root preparations were secured to a tissue slicer and spinal cord slices (400-450 μm thick) with dorsal roots attached cut in chilled (<4° C.) high sucrose aCSF using a Leica VT1000s microtome. Slices were transferred to a small beaker containing ice-cold standard aCSF (see below) and rapidly warmed to 35±1° C. in a temperature-controlled water bath over a 20 minute period, then subsequently removed and maintained at room temperature (22±2° C.) prior to electrophysiological recording.
Spinal cord electrophysiological recording: For electrophysiological recording, a spinal cord slice was transferred to a custom-built chamber. […]
Another series relates to isolated frog heart. The experiment in a line: Frog heart preparation, heart rate. Also noted: species or system Xenopus leavis. As to conditions: adenosine 30 μM, BnOCPA 300 nM. How it is done:
Frog heart preparation: Xenopus […] frogs (young adult males) were supplied from Portsmouth Xenopus Resource Centre. Frogs were euthanized with MS222 (0.2% at a pH of 7), decapitated and pithed. The animals were dissected to reveal the heart and the pericardium carefully removed. Heart contractions were measured with a force transducer (AD instruments). Heart rate was acquired via a PowerLab […] (AD instruments) controlled by LabChart 7 (AD instruments). The heart was regularly washed with ringer and drugs were applied directly to the heart.

The next series has as its target T2, human (h) A1R (Homo sapiens, UniProt P30542).
T2 sequence (P30542 1-326): T1 sequence (P30542 1-326)
The experiment in a line: Radioligand binding, [3H]DPCPX, membranes of CHO-K1-hA1R cells. The note with it: displacement of [3H]DPCPX. How it is done:
Radioligand binding. Radioligand displacement assays were conducted using crude membrane preparations (100 μg protein per tube) acquired from homogenisation of CHO-K1-hA1R cells in ice-cold buffer (2 mM MgCl2, 20 mM HEPES, pH 7.4). […] Non-specific binding was determined in the presence of 10 μM DPCPX. […] Free radioligand was separated from bound radioligand by filtration through Whatman® glass microfiber GF/B 25 mm filters (Sigma-Aldrich). Each filter was then placed in a Sterilin™ scintillation vial and radioactivity determined by: addition of 4 mL of Ultima Gold XR liquid scintillant (PerkinElmer), overnight incubation at room temperature and the retained radioactivity determined using a Beckman Coulter LS 6500 Multi-purpose scintillation counter (Beckman Coulter Inc.; Indiana, USA).
Data Analysis. […] Statistical significance was tested as indicated in the text using paired or unpaired t-tests or one-way or two-way ANOVAs with repeated measures (RM) as appropriate. Bonferroni corrections for multiple comparisons were performed. All in vitro cell signalling assay data was analysed using Prism 7.0e (Graphpad software, San Diego, Calif.), with all concentration-response curves being fitted using a 3 parameter logistic equation to calculate response range and IC50. All cAMP data was normalised to a forskolin concentration-response curve ran in parallel to each assay. […]
A general note: Loss of bound radioactivity is the signal in a displacement assay; it reports binding, not function.

In series [5] the test system is membrane potential of pyramidal cells. In words: Whole cell current clamp recording of membrane potential, CA1 pyramidal cells. Format: cell-based, rat. How it is done:
as §2
Whole cell patch clamp recording from hippocampal pyramidal cells: A slice was transferred to the recording chamber and perfused at 3 mL/min with aCSF at 32±0.5° C. Slices were visualised using IR-DIC optics with an Olympus BX151W microscope (Scientifica) and a CCD camera (Hitachi). […] Voltage and current recordings were obtained using an Axon Multiclamp 700B amplifier (Molecular Devices, USA) and digitised at 20 KHz. Data acquisition and analysis was performed using Pclamp 10 (Molecular Devices). For voltage clamp experiments, CA1 pyramidal cells were held at −60 mV. Peptides to interfere with G protein signalling were introduced via the patch pipette into the recorded cell.

Series [6] relates to seizure activity induced in hippocampal slices. The experiment in a line: Seizure model in hippocampal slices (no added Mg2+, 6 mM K+ aCSF). Type of series: cell-based, rat. As to conditions: adenosine 20-100 μM, NECA 300 nM, CPA 300 nM, BnOCPA 300 nM to 1 μM. How it is done: as §2
Seizure model: Seizure activity was induced in hippocampal slices using aCSF which contained no added Mg^2+ and with the total K^+ concentration increased to 6 mM with KCl. Removal of extracellular Mg^2+ facilitates NMDA receptor activation producing long lasting EPSPS, which can sum together to produce tonic activation. Increasing the extracellular concentration of K^+ depolarises neurons leading to firing and release of glutamate to sustain activity. Both the increase in K^+ concentration and removal of Mg^2+ are required to produce spontaneous activity in hippocampal slices. Spontaneous activity was measured with an aCSF-filled microelectrode placed within stratum radiatum in CA1.

Where [7] appears, read: IV bolus, BnOCPA 8.3 ug/kg, CPA 6.3 μg·kg^−1.

For `OC[C@H]1O[C@@H](n2cnc3c(NC4CCCC4)ncnc32)[C@H](O)[C@@H]1O` [CPA, N-Cyclopentyladenosine], the “β-arrestin recruitment at the A1R” value on human A1R was “no β-arrestin recruitment”. In [1] (setting [7]), the “minute ventilation (VE) after injection” value amounted to 99 ± 19 mL/min, the “respiratory frequency (f) after injection” value is reported as 108±10 BrPM and the “tidal volume (VT) after injection” value worked out at 0.8 ± 0.1 mL. For the same compound, the effect on respiration result in series [1] (intravenous injection) is given as “caused significant respiratory depression”. Besides, the half-maximal inhibitory concentration (IC50) in series [2] worked out at 11.8 ± 2.7 nM. The “inhibition of cAMP accumulation via Gob” value with Gob is “inhibit cAMP accumulation through coupling to Gob”. In addition, in series [3], the “change of HR” value is “about 50%”, the “heart rate (HR) after injection” value was 207±29 BPM and the “mean arterial blood pressure (MAP) after injection” value came out at 51±5 mmHg. Also, the “activation of / coupling to Goa” value in the series on Goa is “coupled to a range of Gi/o subunits, and in particular Goa”. Further, the “effect on dorsal root afferent-evoked EPSPs” value in series [4] is “significant reduction in amplitude of the EPSPs in CPA, comparable to that of BnOCPA”. Moreover, in the series on isolated frog heart, the “effect on isolated frog heart rate” value is recorded as “reduced the isolated frog heart rate similar to adenosine”. For the same compound, in the series with isolated frog heart (CPA), the “reduction / change of heart rate” value is recorded as 6.2±0.5 BPM. Also, the “binding affinity at the A1R (comparison)” value at human (h) A1R was “equal affinity”. In addition, in [5] (CPA 300 nM after BnOCPA 300 nM, 10 minutes), the “mean hyperpolarisation by CPA in the presence of BnOCPA” value stood at 2.7±2 mV. In addition, the “membrane potential after agonist” value in [5] (adenosine 100 μM, CPA 300 nM) is on record as −71.3±1.4 mV. Also, the “mean change of membrane potential (hyperpolarisation)” value in series [5] (adenosine 100 μM, CPA 300 nM, BnOCPA 300 nM-1 μM) is reported as −7.3±0.85 mV. Also, in series [5] (example traces, CA1 pyramidal cells), the “effect on membrane potential” value was “hyperpolarised the membrane potential”. Moreover, the “effect on seizure activity” value in series [6] is “completely suppressed neuronal firing; also recorded: abolished seizure activity”.
